# Measurements from PubChem BioAssay (NCI).
#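 Five compound concentrations were applied to cells in 96-well plates for 48 hours; endpoints were derived by simple linear interpolation of the resulting dose-response curve. At the GI50, growth is halved. TGI marks complete inhibition of growth.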
# Legend:
# Test in all cases: NCI anticancer screen, dose series, 48 h
# [1] = tested on: 786-0 renal
# [2] = tested on: A498 renal
# [3] = tested on: A549 NSCLC
# [4] = tested on: ACHN renal
# [5] = tested on: CAKI-1 renal
# [6] = tested on: CCRF-CEM leukemia
# [7] = tested on: DLD-1 colon
# [8] = tested on: DMS 273 small cell lung
# [9] = tested on: EKVX NSCLC
# [10] = tested on: HCC-2998 colon
# [11] = tested on: HCT-116 colon
# [12] = tested on: HCT-15 colon
# [13] = tested on: HL-60(TB) leukemia
# [14] = tested on: HOP-62 NSCLC
# [15] = tested on: HOP-92 NSCLC
# [16] = tested on: HT29 colon
# [17] = tested on: IGROV1 ovarian
# [18] = tested on: K-562 leukemia
# [19] = tested on: KM12 colon
# [20] = tested on: KM20L2 colon
# [21] = tested on: LOX IMVI melanoma
# [22] = tested on: M14 melanoma
# [23] = tested on: M19-MEL melanoma
# [24] = tested on: MALME-3M melanoma
# [25] = tested on: MOLT-4 leukemia
# [26] = tested on: NCI-H226 lung
# [27] = tested on: NCI-H23 lung
# [28] = tested on: NCI-H460 lung
# [29] = tested on: NCI-H522 lung
# [30] = tested on: OVCAR-3 ovarian
# [31] = tested on: OVCAR-4 ovarian
# [32] = tested on: OVCAR-5 ovarian
# [33] = tested on: OVCAR-8 ovarian
# [34] = tested on: RPMI-8226 leukemia
# [35] = tested on: RXF 393 renal
# [36] = tested on: SF-295 CNS
# [37] = tested on: SF-539 CNS
# [38] = tested on: SK-MEL-2 melanoma
# [39] = tested on: SK-MEL-5 melanoma
# [40] = tested on: SK-OV-3 ovarian
# [41] = tested on: SN12C renal
# [42] = tested on: SNB-19 CNS
# [43] = tested on: SNB-78 CNS
# [44] = tested on: SW-620 colon
# [45] = tested on: TK-10 renal
# [46] = tested on: U251 CNS
# [47] = tested on: UACC-257 melanoma
# [48] = tested on: UACC-62 melanoma
# [49] = tested on: UO-31 renal
# [50] = tested on: XF 498 CNS
# [51] = tested on: COLO 205 colon
# [52] = tested on: DMS 114 small cell lung
# [53] = tested on: SF-268 CNS
# [54] = tested on: SK-MEL-28 melanoma
# [55] = tested on: SR leukemia
# [56] = tested on: BT-549 breast
# [57] = tested on: DU-145 prostate
# [58] = tested on: HS 578T breast
# [59] = tested on: MCF7 breast
# [60] = tested on: MDA-MB-231 breast
# [61] = tested on: MDA-MB-435
# [62] = tested on: MDA-N
# [63] = tested on: NCI/ADR-RES ovarian
# [64] = tested on: PC-3 prostate
# [65] = tested on: SNB-75 CNS
# [66] = tested on: T-47D breast
compound,measurement,setting,value
C/C(=N\[N+](C)(C)C)C(c1ccccc1)C1(c2ccccc2)C(c2ccccc2)=C1c1ccccc1 (centres undefined),TGI,[1],> 100 µM
same,TGI,[2],> 100 µM
same,TGI,[3],> 100 µM
same,TGI,[4],> 100 µM
same,TGI,[5],> 100 µM
same,TGI,[6],> 100 µM
same,TGI,[7],> 100 µM
same,TGI,[8],> 100 µM
same,TGI,[9],> 100 µM
same,TGI,[10],> 100 µM
same,TGI,[11],> 100 µM
same,TGI,[12],> 100 µM
same,TGI,[13],> 100 µM
same,TGI,[14],> 100 µM
same,TGI,[15],> 100 µM
same,TGI,[16],> 100 µM
same,TGI,[17],> 100 µM
same,TGI,[18],> 100 µM
same,TGI,[19],> 100 µM
same,TGI,[20],> 100 µM
same,TGI,[21],> 100 µM
same,TGI,[22],> 100 µM
same,TGI,[23],> 100 µM
same,TGI,[24],> 100 µM
same,TGI,[25],> 100 µM
same,TGI,[26],93.4 µM
same,TGI,[27],> 100 µM
same,TGI,[28],> 100 µM
same,TGI,[29],> 100 µM
same,TGI,[30],> 100 µM
same,TGI,[31],> 100 µM
same,TGI,[32],> 100 µM
same,TGI,[33],> 100 µM
same,TGI,[34],> 100 µM
same,TGI,[35],73 µM
same,TGI,[36],> 100 µM
same,TGI,[37],> 100 µM
same,TGI,[38],> 100 µM
same,TGI,[39],> 100 µM
same,TGI,[40],> 100 µM
same,TGI,[41],> 100 µM
same,TGI,[42],> 100 µM
same,TGI,[43],> 100 µM
same,TGI,[44],> 100 µM
same,TGI,[45],> 100 µM
same,TGI,[46],> 100 µM
same,TGI,[47],> 100 µM
same,TGI,[48],> 100 µM
same,TGI,[49],> 100 µM
same,TGI,[50],50.4 µM
CC(=O)[CH-]C(C)=O.CC(=O)[CH-]C(C)=O.CC(=O)[CH-]C(C)=O.[Cl-].[Hf+4],GI50,[1],> 100 µM
same,TGI,[1],> 100 µM
same,GI50,[2],> 100 µM
same,TGI,[2],> 100 µM
same,GI50,[3],> 100 µM
same,TGI,[3],> 100 µM
same,GI50,[4],> 100 µM
same,TGI,[4],> 100 µM
same,GI50,[5],> 100 µM
same,TGI,[5],> 100 µM
same,GI50,[6],> 100 µM
same,TGI,[6],> 100 µM
same,GI50,[51],> 100 µM
same,TGI,[51],> 100 µM
same,GI50,[52],> 100 µM
same,TGI,[52],> 100 µM
same,GI50,[8],> 100 µM
same,TGI,[8],> 100 µM
same,GI50,[9],> 100 µM
same,TGI,[9],> 100 µM
same,GI50,[10],> 100 µM
same,TGI,[10],> 100 µM
same,GI50,[11],> 100 µM
same,TGI,[11],> 100 µM
same,GI50,[12],> 100 µM
same,TGI,[12],> 100 µM
same,GI50,[13],> 100 µM
same,TGI,[13],> 100 µM
same,GI50,[14],> 100 µM
same,TGI,[14],> 100 µM
same,GI50,[15],> 100 µM
same,TGI,[15],> 100 µM
same,GI50,[16],> 100 µM
same,TGI,[16],> 100 µM
same,GI50,[17],> 100 µM
same,TGI,[17],> 100 µM
same,GI50,[18],> 100 µM
same,TGI,[18],> 100 µM
same,GI50,[19],> 100 µM
same,TGI,[19],> 100 µM
same,GI50,[20],> 100 µM
same,TGI,[20],> 100 µM
same,GI50,[21],> 100 µM
same,TGI,[21],> 100 µM
same,GI50,[22],> 100 µM
same,TGI,[22],> 100 µM
same,GI50,[24],> 100 µM
same,TGI,[24],> 100 µM
same,GI50,[25],> 100 µM
same,TGI,[25],> 100 µM
same,GI50,[26],> 100 µM
same,TGI,[26],> 100 µM
same,GI50,[27],> 100 µM
same,TGI,[27],> 100 µM
same,GI50,[28],> 100 µM
same,TGI,[28],> 100 µM
same,GI50,[29],> 100 µM
same,TGI,[29],> 100 µM
same,GI50,[30],> 100 µM
same,TGI,[30],> 100 µM
same,GI50,[31],> 100 µM
same,TGI,[31],> 100 µM
same,GI50,[32],> 100 µM
same,TGI,[32],> 100 µM
same,GI50,[33],> 100 µM
same,TGI,[33],> 100 µM
same,GI50,[34],> 100 µM
same,TGI,[34],> 100 µM
same,GI50,[35],> 100 µM
same,TGI,[35],> 100 µM
same,GI50,[53],> 100 µM
same,TGI,[53],> 100 µM
same,GI50,[36],> 100 µM
same,TGI,[36],> 100 µM
same,GI50,[37],> 100 µM
same,TGI,[37],> 100 µM
same,GI50,[38],> 100 µM
same,TGI,[38],> 100 µM
same,GI50,[54],> 100 µM
same,TGI,[54],> 100 µM
same,GI50,[40],> 100 µM
same,TGI,[40],> 100 µM
same,GI50,[41],> 100 µM
same,TGI,[41],> 100 µM
same,GI50,[42],> 100 µM
same,TGI,[42],> 100 µM
same,GI50,[55],> 100 µM
same,TGI,[55],> 100 µM
same,GI50,[44],> 100 µM
same,TGI,[44],> 100 µM
same,GI50,[45],> 100 µM
same,TGI,[45],> 100 µM
same,GI50,[46],> 100 µM
same,TGI,[46],> 100 µM
same,GI50,[47],> 100 µM
same,TGI,[47],> 100 µM
same,GI50,[48],> 100 µM
same,TGI,[48],> 100 µM
same,GI50,[49],> 100 µM
same,TGI,[49],> 100 µM
COc1ccc2cc(CNCCCN3CCN(CCCNCc4ccc5cc(OC)ccc5c4)CC3)ccc2c1,TGI,[1],2.88 µM
same,TGI,[2],3.07 µM
same,TGI,[3],3.31 µM
same,TGI,[4],3.19 µM
same,TGI,[56],3.26 µM
same,TGI,[5],3.2 µM
same,TGI,[6],1.3 µM
same,TGI,[51],2.83 µM
same,TGI,[57],2.88 µM
same,TGI,[9],3.18 µM
same,TGI,[10],0.643 µM
same,TGI,[11],2.56 µM
same,TGI,[12],3.01 µM
same,TGI,[13],0.594 µM
same,TGI,[14],3.13 µM
same,TGI,[15],2.82 µM
same,TGI,[58],3.32 µM
same,TGI,[16],1.65 µM
same,TGI,[17],3.12 µM
same,TGI,[18],0.366 µM
same,TGI,[19],2.14 µM
same,TGI,[21],1.48 µM
same,TGI,[22],3.01 µM
same,TGI,[24],3.14 µM
same,TGI,[59],2.85 µM
same,TGI,[60],3.42 µM
same,TGI,[61],2.99 µM
same,TGI,[62],2.78 µM
same,TGI,[25],5.72 µM
same,TGI,[26],3.69 µM
same,TGI,[27],3.5 µM
same,TGI,[28],2.87 µM
same,TGI,[29],3.81 µM
same,TGI,[63],6.51 µM
same,TGI,[30],3.02 µM
same,TGI,[31],3.48 µM
same,TGI,[32],2.6 µM
same,TGI,[33],3.21 µM
same,TGI,[64],2.36 µM
same,TGI,[34],0.577 µM
same,TGI,[35],2.85 µM
same,TGI,[53],3.32 µM
same,TGI,[36],3.34 µM
same,TGI,[37],3.39 µM
same,TGI,[38],3.42 µM
same,TGI,[54],3.09 µM
same,TGI,[39],3.05 µM
same,TGI,[40],2.72 µM
same,TGI,[41],3.11 µM
same,TGI,[42],3.18 µM
same,TGI,[65],3.08 µM
same,TGI,[55],0.658 µM
same,TGI,[44],0.982 µM
same,TGI,[66],3.19 µM
same,TGI,[45],3.3 µM
same,TGI,[46],3.13 µM
same,TGI,[47],3.86 µM
same,TGI,[48],1.36 µM
same,TGI,[49],3.14 µM
